Test: derived from PAMPA membrane permeability
Settings: n-hexadecane (PAMPA-derived); buffer (PAMPA)

**Q.** For `c1ccc2c(c1)Sc1ccccc1N2CC1CN2CCC1CC2` (stereo not drawn), which “hexadecane/water partition coefficient derived from PAMPA flux (Khex/w)” value is on record?
**A.** 2951 K (ratio)

**Q.** For `Clc1ccc2c(c1)CCc1cccnc1C2=C1CCNCC1`, which “hexadecane/water partition coefficient derived from PAMPA flux (Khex/w)” value is on record?
**A.** 99.11 K (ratio)

**Q.** Which “hexadecane/water partition coefficient derived from PAMPA flux (Khex/w)” value does the source give for `CN1CCC[C@@H]1Cc1c[nH]c2ccc(CCS(=O)(=O)c3ccccc3)cc12` here?
**A.** 1.2 K (ratio)

**Q.** Which “hexadecane/water partition coefficient derived from PAMPA flux (Khex/w)” value does the source give for `CC(C)CN(C[C@@H](O)[C@H](Cc1ccccc1)NC(=O)O[C@H]1CCOC1)S(=O)(=O)c1ccc(N)cc1` here?
**A.** 0.01885 K (ratio)

**Q.** Which “hexadecane/water partition coefficient derived from PAMPA flux (Khex/w)” value does the source give for `CC(C)(C)c1ccc(C(O)CCCN2CCC(C(O)(c3ccccc3)c3ccccc3)CC2)cc1` (stereo not drawn) here?
**A.** 34105.6131886465 K (ratio)

**Q.** Which “hexadecane/water partition coefficient derived from PAMPA flux (Khex/w)” value does the source give for `Cc1c(O)cccc1C(=O)N[C@@H](CSc1ccccc1)[C@H](O)CN1C[C@H]2CCCC[C@H]2C[C@H]1C(=O)NC(C)(C)C` here?
**A.** 0.398 K (ratio)

— publication PMC12655371
